Laboratory results from paper PMC2810552 (Journal of medicinal chemistry, 2009).
Where two headings read alike, the source gives them in different places.

What was measured:
[1] = biological target: T1, Gal4DBD-GRLBD-VP16 fusion protein in HeLa cells (Homo sapiens, UniProt P04150); assay type: cell-based; details: for Luc activity induced (in words): up to 6 µM
T1 sequence (P04150 524-758 limits assumed): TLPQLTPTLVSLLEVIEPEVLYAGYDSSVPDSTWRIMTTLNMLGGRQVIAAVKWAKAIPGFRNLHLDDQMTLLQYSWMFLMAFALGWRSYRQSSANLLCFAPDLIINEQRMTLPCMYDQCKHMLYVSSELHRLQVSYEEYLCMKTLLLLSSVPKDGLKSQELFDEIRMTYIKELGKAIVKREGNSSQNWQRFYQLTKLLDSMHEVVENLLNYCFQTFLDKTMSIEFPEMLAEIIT

[2] = Solubility limit observed in the Luc assay; assay type: physicochemical; details: cell-based Luc induction (reporter) assay in HeLa cells
[3] = biological target: T1, Gal4DBD-GRLBD-VP16 fusion protein in HeLa cells; details: cited from earlier work
[4] = biological target: T2, breast cancer cell line MCF7 (Homo sapiens, UniProt P04150); test: Cell-based functional permeability assay: luciferase reporter in MCF7 cells
T2 sequence (P04150 524-758 limits assumed): T1 sequence (P04150 524-758 limits assumed)

**Q.** Which “concentration at which maximum Luc induction was achieved” value (“concentration” for short) [1] does the source give for C[C@H]1C[C@@H]2[C@H]3CCC4=CC(=O)C=C[C@@]4(C)[C@]3(F)[C@H](O)C[C@@]2(C)[C@]1(O)C(=O)NCCNC(=O)c1cc(NC(=O)c2nccn2C)cn1C [ImPy-Et-Oxdex (27), ImPy-Et-Oxdex] here?
**A.** ~20 µM

**Q.** What does the source list for C[C@H]1C[C@@H]2[C@H]3CCC4=CC(=O)C=C[C@@]4(C)[C@]3(F)[C@H](O)C[C@@]2(C)[C@]1(O)C(=O)NCCNC(=O)c1cc(NC(=O)c2cc(NC(=O)c3cc(NC(=O)c4nccn4C)cn3C)cn2C)cn1C [ImPy3-Et-Oxdex (25), ImPy3-Et-Oxdex]?
**A.** solubility [2]: ≤ 10 µM; Luc induction at 10 µM, times lower than that of ImPy2-Et-Oxdex [1]: 4 times; Luc induction at 10 µM, times lower than that of ImPy-Et-Oxdex [1]: 7 times

**Q.** With C[C@H]1C[C@@H]2[C@H]3CCC4=CC(=O)C=C[C@@]4(C)[C@]3(F)[C@H](O)C[C@@]2(C)[C@]1(O)C(=O)NCCNC(=O)c1cc(NC(=O)c2cc(NC(=O)c3cc(NC(=O)c4cc(NC(=O)CCCNC(=O)c5cc(NC(=O)c6cc(NC(=O)c7cc(NC(=O)c8nccn8C)cn7C)cn6C)cn5C)cn4C)cn3C)cn2C)cn1C [ImPy7γ-Et-Oxdex (24), ImPy7γ-Et-Oxdex] as the compound, how does the solubility [2] read?
**A.** ≤ 10 µM

**Q.** What about the “Luc induction at 10 µM, times lower than that of ImPy2-Et-Oxdex” value [1] of the same compound?
**A.** 4 times

**Q.** And the “Luc induction at 10 µM, times lower than that of ImPy-Et-Oxdex” value [1]?
**A.** 7 times

**Q.** With C[C@H]1C[C@@H]2[C@H]3CCC4=CC(=O)C=C[C@@]4(C)[C@]3(F)[C@H](O)C[C@@]2(C)[C@]1(O)C(=O)CSCCNC(=S)NCCNC(=O)c1cc(NC(=O)c2cc(NC(=O)c3nccn3C)cn2C)cn1C [ImPy2-Et-Sdex (22), ImPy2-Et-Sdex] as the compound, how does the “concentration” value [1] read?
**A.** 6 µM

**Q.** With C[C@H]1C[C@@H]2[C@H]3CCC4=CC(=O)C=C[C@@]4(C)[C@]3(F)[C@H](O)C[C@@]2(C)[C@]1(O)C(=O)CSCCNC(=S)NCCNC(=O)c1cc(NC(=O)c2cc(NC(=O)c3cc(NC(=O)c4cc(NC(=O)c5nccn5C)cn4C)cn3C)cn2C)cn1C [ImPy4-Et-Sdex (20), ImPy4-Et-Sdex] as the compound, how does the “Luc activity induced (in words)” value [1] read?
**A.** did not achieve the maximum induction at 6 µM

**Q.** For C[C@@H]1C[C@H]2[C@@H]3CCC4=CC(=O)C=C[C@]4(C)[C@@]3(F)[C@@H](O)C[C@]2(C)[C@@]1(O)C(N)=O [Oxdex-CONH2 (4), Oxdex-CONH2, reference compound], which EC50 ([3]; read-out: EC50 of Luc induction, HeLa cells) is on record?
**A.** 35000 ± 3000 nM

**Q.** For CC(=O)NCCCN(C)CCCNC(=S)NCCSCC(=O)[C@@]1(O)[C@H](C)C[C@H]2[C@@H]3CCC4=CC(=O)C=C[C@]4(C)[C@@]3(F)[C@@H](O)C[C@@]21C [Ac-Da-Sdex (28), Ac-Da-Sdex], which “concentration” value [1] is on record?
**A.** 6 µM

**Q.** And the “maximum Luc induction” value [1]?
**A.** 3,000 fold

**Q.** For C[C@H]1C[C@@H]2[C@H]3CCC4=CC(=O)C=C[C@@]4(C)[C@]3(F)[C@H](O)C[C@@]2(C)[C@]1(O)C(=O)CSCCNC(=S)NCCNC(=O)c1cc(NC(=O)c2cc(NC(=O)c3cc(NC(=O)c4cc(NC(=O)CCCNC(=O)c5cc(NC(=O)c6nccn6C)cn5C)cn4C)cn3C)cn2C)cn1C [ImPy5γ-Et-Sdex (18), ImPy5γ-Et-Sdex], which “Luc activity induced (in words)” value [1] is on record?
**A.** higher levels compared to ImPy4γ-Et-Sdex (19)

**Q.** What does the source list for C[C@H]1C[C@@H]2[C@H]3CCC4=CC(=O)C=C[C@@]4(C)[C@]3(F)[C@H](O)C[C@@]2(C)[C@]1(O)C(=O)CSCCNC(=S)NCCNC(=O)c1cc(NC(=O)c2cncn2C)cn1C [ImPy-Et-Sdex (23), ImPy-Et-Sdex]?
**A.** EC50 [4]: 940 nM; maximum Luc induction [1]: 3700 fold

**Q.** With C[C@H]1C[C@@H]2[C@H]3CCC4=CC(=O)C=C[C@@]4(C)[C@]3(F)[C@H](O)C[C@@]2(C)[C@]1(O)C(=O)CSCCNC(=S)NCCNC(=O)c1cc(NC(=O)c2cc(NC(=O)c3cc(NC(=O)c4cc(NC(=O)CCCNC(=O)c5cc(NC(=O)c6cc(NC(=O)c7nccn7C)cn6C)cn5C)cn4C)cn3C)cn2C)cn1C [ImPy6γ-Et-Sdex (17), ImPy6γ-Et-Sdex] as the compound, how does the “Luc activity induced (in words)” value [1] read?
**A.** higher levels compared to ImPy4γ-Et-Sdex (19)

**Q.** With C[C@H]1C[C@@H]2[C@H]3CCC4=CC(=O)C=C[C@@]4(C)[C@]3(F)[C@H](O)C[C@@]2(C)[C@]1(O)C(=O)CSCCNC(=S)NCCNC(=O)c1cc(NC(=O)c2cc(NC(=O)c3cc(NC(=O)c4cc(NC(=O)CCCNC(=O)c5nccn5C)cn4C)cn3C)cn2C)cn1C [ImPy4γ-Et-Sdex (19), ImPy4γ-Et-Sdex] as the compound, how does the “Luc activity induced (in words)” value [1] read?
**A.** lowest Luc activity among all Sdex conjugates

**Q.** With C[C@@H]1C[C@H]2[C@@H]3CCC4=CC(=O)C=C[C@]4(C)[C@@]3(F)[C@@H](O)C[C@]2(C)[C@@]1(O)C(=O)CSCCNC(=S)NCCCN(C)CCCNC(=O)CCNC(=O)c1cc(NC(=O)c2cc(NC(=O)c3cc(NC(=O)c4cc(NC(=O)CCCNC(=O)c5cc(NC(=O)c6cc(NC(=O)c7cc(NC(=O)c8nccn8C)cn7C)cn6C)cn5C)cn4C)cn3C)cn2C)cn1C [ImPy7γ-βDa-Sdex (6), ImPy7γ-βDa-Sdex] as the compound, how does the “Luc activity induced (in words)” value ([3]; cell-based functional assay) read?
**A.** modest Luc activity

**Q.** Which “Luc activity induced (in words)” value [1] does the source give for C[C@H]1C[C@@H]2[C@H]3CCC4=CC(=O)C=C[C@@]4(C)[C@]3(F)[C@H](O)C[C@@]2(C)[C@]1(O)C(=O)CSCCNC(=S)NCCNC(=O)c1cc(NC(=O)c2cc(NC(=O)c3cc(NC(=O)c4nccn4C)cn3C)cn2C)cn1C [ImPy3-Et-Sdex (21), ImPy3-Et-Sdex] here?
**A.** did not achieve the maximum induction at 6 µM

**Q.** Which results are given for CC(=O)NCCNC(=S)NCCSCC(=O)[C@@]1(O)[C@H](C)C[C@H]2[C@@H]3CCC4=CC(=O)C=C[C@]4(C)[C@@]3(F)[C@@H](O)C[C@@]21C [Ac-Et-Sdex (15), Ac-Et-Sdex]?
**A.** EC50 [4]: 250 nM; concentration at which maximum Luc induction was achieved ([4]; MCF7 cells): 1 µM; maximum Luc induction ([4]; MCF7 cells): 1,200 fold; concentration at which maximum Luc induction was achieved [1]: 0.6 µM

**Q.** With C[C@H]1C[C@@H]2[C@H]3CCC4=CC(=O)C=C[C@@]4(C)[C@]3(F)[C@H](O)C[C@@]2(C)[C@]1(O)C(=O)CSCCNC(=S)NCCNC(=O)c1cc(NC(=O)c2cc(NC(=O)c3cc(NC(=O)c4cc(NC(=O)CCCNC(=O)c5cc(NC(=O)c6cc(NC(=O)c7cc(NC(=O)c8nccn8C)cn7C)cn6C)cn5C)cn4C)cn3C)cn2C)cn1C [ImPy7γ-Et-Sdex (16), ImPy7γ-Et-Sdex] as the compound, how does the “Luc activity / cellular uptake (in words)” value ([4]; MCF7 cells) read?
**A.** modest improvement of cellular uptake

**Q.** And the “Luc activity induction at 6 µM” value ([1]; 6 µM)?
**A.** 1,500 fold

**Q.** And the “Luc activity induced (in words)” value [1]?
**A.** higher levels compared to ImPy4γ-Et-Sdex (19)
